pIC50, pKi: −log10 of the molar value. Read-outs that look alike come from different tables or passages of the source.
What was measured:
[1] = biological target: human A2A receptor (A2AR) (Homo sapiens, UniProt P29274); assay: Luciferase reporter assay (HEK293-A2AR-luc2p/CRE/Hygro cells, 3 nM CGS21680); type: cell-based; settings: 3 nM CGS21680, 5 h incubation
Summary of the method: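 HEK293 cells stably expressing A2AR with a CRE-luc2P reporter were seeded in 1% FBS with 1 U/mL adenosine deaminase. After 18 h, cells got 3 nM CGS21680 plus antagonist at 0.1–10000 nM for 5 h, followed by a luciferase readout. IC50 is relative to the 3 nM CGS21680 signal, set as 100%.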

[2] = biological target: T1, human adenosine receptor A1 (A1R) (Homo sapiens, UniProt P30542); assay: Adenosine receptor binding assay, radioligand competitive binding, [3H]DPCPX; settings: membrane homogenates from CHO cells transfected with A1R, 1 nM [3H]DPCPX
T1 construct: host or cells: CHO cells (membrane homogenates)
T1 sequence (P30542 1-326): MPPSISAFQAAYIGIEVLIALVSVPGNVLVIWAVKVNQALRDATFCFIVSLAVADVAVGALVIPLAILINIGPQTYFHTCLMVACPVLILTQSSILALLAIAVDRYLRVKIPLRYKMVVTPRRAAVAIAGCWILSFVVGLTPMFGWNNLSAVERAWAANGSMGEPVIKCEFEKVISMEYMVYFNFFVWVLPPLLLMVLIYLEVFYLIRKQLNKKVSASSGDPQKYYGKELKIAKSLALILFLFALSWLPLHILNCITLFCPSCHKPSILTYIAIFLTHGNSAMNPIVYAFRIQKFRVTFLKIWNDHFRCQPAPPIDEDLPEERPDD
Method: (§1) Binding affinity of test compounds to four human adenosine receptors, A1, A2A, A2B and A3 was determined in radioligand competitive binding assay (conducted by Cerep, France) using following protocols. For A1 receptor (A1R), membrane homogenates from CHO cells transfected with A1R were incubated for 60 min at 22° C. with 1 nM [3H]DPCPX in the absence or presence of the test compound in a buffer containing 50 mM Tris-HCl (pH 7.4), 5 mM MgCl2, 1 mM EDTA/Tris and 2 UI/mL ADA. For A2AR, membrane homogenates from HEK293 cells transfected with A2AR were incubated for 120 min at 22° C. with 6 nM [3H]CGS21680 in the absence or presence of the test compound in a buffer containing 50 mM Tris-HCl (pH 7.4), 10 mM MgCl2, and 2 UI/mL ADA. For A2B receptor (A2BR), membrane homogenates from HEK293 cells transfected with A2BR were incubated for 60 min at 22° C. with 5 nM [3H]CPX in the absence or presence of the test compound in a buffer containing 10 mM Hepes/Tris (pH 7), 1 mM MgCl2, and 1 mM EDTA. For A3 receptor (A3R), membrane homogenates from HEK293 cells transfected with A3R were incubated for 120 min at 22° C. with 0.15 nM [125I]AB-MECA in the absence or presence of the test compound in a buffer containing 50 mM Tris-HCl (pH 7.4), 5 mM MgCl2, 1 mM EDTA and 2 UI/mL ADA. Nonspecific binding was determined in the presence of unlabeled 1 μM DPCPX, 10 μM NECA, 100 μM NECA, and 1 μM IB-MECA in A1R, A2AR, A2BR, A3R binding assays, respectively. Following incubation, the samples are rapidly filtered and washed with ice-cold 50 mM Tris-HCl. Then filters are dried and counted for radioactivity in a scintillation counter (Topcount, Packard) using a scintillation cocktail (Microscint 0, Packard). Duplicate experiments were performed for each assay. The results are expressed as a percent inhibition of control radioligand specific binding.

[3] = biological target: T2, human adenosine receptor A2A (A2AR) (Homo sapiens, UniProt P29274); assay: Adenosine receptor binding assay, radioligand competitive binding, [3H]CGS21680; settings: membrane homogenates from HEK293 cells transfected with A2AR, 6 nM [3H]CGS21680
T2 construct: host or cells: HEK293 cells (membrane homogenates)
Method: as §1

Mouse BBB assay = type: in vivo; settings: oral 10 mg/kg
Method: Mice were acclimated for 1 week prior to use at 18-30 g body weight. Fasted mice were dosed orally at 10 mg/kg dose. At 1, 2 and 4 hours postdose, plasma samples from cardiac blood collected in tubes containing K2EDTA as the anticoagulant, and excised cerebral hemispheres were immediately frozen and stored at −80° C. until bioanalysis. Total concentrations of the compound were determined by LC-MS/MS. Brain homogenate concentrations were converted to brain concentrations for the calculations of brain-to-plasma ratios.

T2 sequence (P29274 whole entry): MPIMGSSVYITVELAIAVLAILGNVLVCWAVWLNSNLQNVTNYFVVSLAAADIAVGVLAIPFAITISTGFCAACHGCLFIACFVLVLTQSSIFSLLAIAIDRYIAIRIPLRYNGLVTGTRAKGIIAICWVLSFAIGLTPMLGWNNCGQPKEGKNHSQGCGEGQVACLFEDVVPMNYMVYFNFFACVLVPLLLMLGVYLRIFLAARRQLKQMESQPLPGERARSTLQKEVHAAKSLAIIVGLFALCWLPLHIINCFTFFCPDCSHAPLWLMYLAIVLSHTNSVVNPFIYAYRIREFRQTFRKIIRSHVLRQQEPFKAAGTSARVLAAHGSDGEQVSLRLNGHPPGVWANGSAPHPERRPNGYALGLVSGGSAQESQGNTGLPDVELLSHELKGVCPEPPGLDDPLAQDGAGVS
human A2A receptor (A2AR), sequence (P29274 whole entry): as above

| SMILES | pIC50 [1] | pKi [2] | pKi [3] | concentration at 1 h (Mouse BBB assay; brain, read-out: Brain) | concentration at 1 h (Mouse BBB assay; plasma, read-out: Plasma) |
| --- | --- | --- | --- | --- | --- |
| CCCC(C(=O)N1CCN(c2ccc(OCCOC)cc2)CC1)n1ncc2c1nc(N)n1nc(-c3ccco3)nc21 (single isomer, unassigned) [Compound A5a, 2-(5-amino-2-(furan-2-yl)-7H-pyrazolo[4,3-e][1,2,4]triazolo[1,5-c]pyrimidin-7-yl)-1-(4-(4-(2-methoxyethoxy)phenyl)piperazin-1-yl)pentan-1-one] | 8.66 | 6.80 | 8.77 | 5.1 ng/g | 116 ng/mL |
| CCCC(C(=O)N1CCN(c2ccc(OCCOCCOC)cc2)CC1)n1ncc2c1nc(N)n1nc(-c3ccco3)nc21 (single isomer, unassigned) [Compound A6a, 2-(5-amino-2-(furan-2-yl)-7H-pyrazolo[4,3-e][1,2,4]triazolo[1,5-c]pyrimidin-7-yl)-1-(4-(4-(2-(2-methoxyethoxy)ethoxy)phenyl)piperazin-1-yl)pentan-1-one] | 8.30 | 7.09 | 8.85 | 4.2 ng/g | 173 ng/mL |
| CCCCC(C(=O)N1CCN(c2ccc(OCCOC)cc2)CC1)n1ncc2c1nc(N)n1nc(-c3ccco3)nc21 (single isomer, unassigned) [Compound A10a, 2-(5-amino-2-(furan-2-yl)-7H-pyrazolo[4,3-e][1,2,4]triazolo[1,5-c]pyrimidin-7-yl)-1-(4-(4-(2-methoxyethoxy)phenyl)piperazin-1-yl)hexan-1-one] | 8.57 | 6.92 | 8.64 | 20 ng/g | 471 ng/mL |
| COCCOc1ccc(N2CCN(C(=O)C(c3ccccc3)n3ncc4c3nc(N)n3nc(-c5ccco5)nc43)CC2)cc1 (single isomer, unassigned) [Compound A13b] | 9.10 | 7.38 | 9.04 | 54 ng/g | 2440 ng/mL |
| COCCOc1ccc(N2CCN(C(=O)[C@@](C)(c3ccccc3)n3ncc4c3nc(N)n3nc(-c5ccco5)nc43)CC2)cc1 [Compound A63b, (R)-2-(5-amino-2-(furan-2-yl)-7H-pyrazolo[4,3-e][1,2,4]triazolo[1,5-c]pyrimidin-7-yl)-1-(4-(4-(2-methoxyethoxy)phenyl)piperazin-1-yl)-2-phenylpropan-1-one] | 8.48 | 6.82 | 8.82 |  |  |
| COCCOc1ccc(N2CCN(C(=O)Cn3ncc4c3nc(N)n3nc(-c5ccco5)nc43)CC2)cc1 [Compound D1, 2-(5-amino-2-(furan-2-yl)-7H-pyrazolo[4,3-e][1,2,4]triazolo[1,5-c]pyrimidin-7-yl)-1-(4-(4-(2-methoxyethoxy)phenyl)piperazin-1-yl)ethan-1-one] | 7.57 | 7.28 | 8.74 |  |  |
| COCCOc1ccc(N2CCN(C(=O)Cn3cc4c(nc(N)n5nc(-c6ccco6)nc45)n3)CC2)cc1 [Compound D2, 2-(5-amino-2-(furan-2-yl)-8H-pyrazolo[4,3-e][1,2,4]triazolo[1,5-c]pyrimidin-8-yl)-1-(4-(4-(2-methoxyethoxy)phenyl)piperazin-1-yl)ethan-1-one] | 7.18 | 9.09 | 8.55 |  |  |
